Assay results from ChEMBL document CHEMBL1926603 (Bioorg Med Chem Lett, 2011).

What was measured:
[1] = system: Radical scavenging activity
Description: Antioxidant activity assessed as DPPH radical scavenging activity after 30 mins

Tyrosinase = biological target: T1, Tyrosinase (Agaricus bisporus, UniProt O42713); experiment: Inhibition of mushroom tyrosinase activity using L-tyrosin as substrate after 20 mins
T1 sequence (O42713 whole entry): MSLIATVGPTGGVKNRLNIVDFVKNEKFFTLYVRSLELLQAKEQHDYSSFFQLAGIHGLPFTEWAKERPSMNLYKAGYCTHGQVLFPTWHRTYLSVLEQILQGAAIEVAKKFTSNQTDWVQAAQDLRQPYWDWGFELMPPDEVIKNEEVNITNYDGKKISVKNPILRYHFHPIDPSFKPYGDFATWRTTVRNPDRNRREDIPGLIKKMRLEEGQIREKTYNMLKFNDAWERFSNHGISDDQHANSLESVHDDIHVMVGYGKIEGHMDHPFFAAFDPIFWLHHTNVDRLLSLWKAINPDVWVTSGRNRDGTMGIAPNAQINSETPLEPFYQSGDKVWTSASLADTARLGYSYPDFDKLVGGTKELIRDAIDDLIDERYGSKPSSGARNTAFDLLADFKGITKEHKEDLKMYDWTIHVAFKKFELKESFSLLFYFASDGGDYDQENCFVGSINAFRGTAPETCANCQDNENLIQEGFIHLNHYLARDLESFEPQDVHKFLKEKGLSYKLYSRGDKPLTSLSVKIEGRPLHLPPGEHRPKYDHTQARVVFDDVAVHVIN

cells [2] = conditions: Mus musculus, Melan-a
Description: Cytotoxicity against mouse Melan-a cells by modified crystal voilet assay

cells [3] = conditions: Mus musculus, Melan-a, 96 h
Description: Depigmentation activity in mouse Melan-a cells assessed as inhibition of melanin formation after 4 days

[4] = Ratio of kojic acid IC50 to compound IC50 for depigmentation activity in mouse Melan-a cells assessed as inhibition of melanin formation after 4 days; format: functional

Question: With `COc1coc(COC(=O)C2(C)CCc3c(C)c(O)c(C)c(C)c3O2)cc1=O` (stereo unspecified) as the molecule, how does the IC50 [1] read?
Answer: Its IC50 is 19.8 µM.

Question: And the IC50 (Tyrosinase)?
Answer: The IC50 was > 200 µM.

Question: What about the IC50 (cells [2]) of the same molecule?
Answer: The IC50 was > 200 µM.

Question: And the IC50 (cells [3])?
Answer: Its IC50 is > 200 µM.

Question: For `Cc1c(C)c2c(c(C)c1O)CCC(C)(C(=O)O)O2` (stereo unspecified) [TROLOX], which IC50 [1] is on record?
Answer: The IC50 was 10.1 µM.

Question: And the IC50 (Tyrosinase)?
Answer: Its IC50 is > 200 µM.

Question: And the IC50 (cells [2])?
Answer: The IC50 was 300 µM.

Question: What about the IC50 (cells [3]) of the same molecule?
Answer: The IC50 was > 300 µM.

Question: Which IC50 [1] does the source give for `O=C(OCc1cc(=O)c(O)co1)c1ccc(O)cc1` here?
Answer: The IC50 was > 200 µM.

Question: What about the IC50 (Tyrosinase) of the same molecule?
Answer: Its IC50 is 5.51 µM.

Question: And the IC50 (cells [2])?
Answer: The IC50 was > 200 µM.

Question: What about the IC50 (cells [3]) of the same molecule?
Answer: The IC50 was > 200 µM.

Question: Which IC50 [1] does the source give for `O=C(OCc1cc(=O)c(O)co1)c1ccc2cc(O)ccc2c1` here?
Answer: The IC50 was > 200 µM.

Question: What about the IC50 (Tyrosinase) of the same molecule?
Answer: The IC50 was 9.65 µM.

Question: What about the IC50 (cells [2]) of the same molecule?
Answer: The IC50 was > 200 µM.

Question: What about the IC50 (cells [3]) of the same molecule?
Answer: Its IC50 is > 200 µM.

Question: What does the source list for `Cc1c(C)c2c(c(C)c1O)CCC(C)(C(=O)OCc1cc(=O)c(O)co1)O2` (racemic)?
Answer: IC50 [1]: 11.6 µM; IC50 (Tyrosinase): 5.36 µM; IC50 (cells [2]): 56.5 µM; IC50 (cells [3]): 17.7 µM; Ratio IC50 [4]: 90
